US4138554A, “7-[D-α-(4-Hydroxy-1,5-naphthyridine-3-carboxamido)-α-phenyl (and p-hydroxyphenyl)acetamido]-3-carbamoyloxymethyl-3-cephem-4-carboxylic acids” (priority 1977, dated 1979)
Read-outs that look alike come from different tables or passages of the source.

What was measured:
Type in all cases: cell-based
[1] = system: Pseudomonas aeruginosa; test: MIC by agar dilution against 61 strains of Pseudomonas aeruginosa, secondary evaluation; conditions: Pseudomonas aeruginosa
Protocol: (§1) Minimum inhibitory concentrations (MIC) of BB-S520 were determined by serial two-fold agar dilution method using Steers' apparatus on Meuller-Hinton agar plate against 31 test organisms for the primary screening and also against 61 strains of Pseudomonas aeruginosa for the secondary evaluation. The results are shown in Table 1 and Table 2 along with those of BB-S514 and sulbenicillin.
(§2) Minimum inhibitory concentrations (MIC) of cephalosporins in the present study were determined by serial two-fold agar dilution method using Steers' apparatus on Mueller-Hinton agar plate against 31 test organisms for the primary screening and also against 61 strains of Pseudomonas aeruginosa for the secondary evaluation.

[2] = system: K. pneumoniae; test: MIC by serial two-fold agar dilution (Mueller-Hinton agar), K. pneumoniae; conditions: Klebsiella pneumoniae
Protocol: as §1, §2

[3] = system: S. marcescens; test: MIC by serial two-fold agar dilution (Mueller-Hinton agar), S. marcescens
Protocol: as §1, §2

[4] = system: E. cloacae; test: MIC by serial two-fold agar dilution (Mueller-Hinton agar), E. cloacae; conditions: Enterobacter cloacae
Protocol: as §1, §2

[5] = system: S. enteritidis; test: MIC by serial two-fold agar dilution (Mueller-Hinton agar), S. enteritidis
Protocol: as §1, §2

Measured: MIC

CC1(C)S[C@@H]2[C@H](NC(=O)C(c3ccccc3)S(=O)(=O)O)C(=O)N2[C@H]1C(=O)O (stereo partly drawn) [Sulbenicillin, sulbenicillin]
25 µg/mL: [1]; BBRI Pa-No. 30, Table 2, read-out: MIC | [1]; BBRI Pa-No. 30, Table 7, read-out: MIC | [1]; BBRI Pa-No. 32, Table 2, read-out: MIC | [1]; BBRI Pa-No. 32, Table 7, read-out: MIC | [1]; BBRI Pa-No. 33, Table 7, read-out: MIC | [1]; BBRI Pa-No. 34, Table 2, read-out: MIC | [1]; BBRI Pa-No. 37, Table 7, read-out: MIC | [1]; BBRI Pa-No. 39, Table 2, read-out: MIC | [1]; BBRI Pa-No. 39, Table 7, read-out: MIC | [1]; BBRI Pa-No. 41, Table 2, read-out: MIC | [1]; BBRI Pa-No. 41, Table 7, read-out: MIC | [1]; BBRI Pa-No. 43, Table 7, read-out: MIC | [1]; BBRI Pa-No. 51, Table 2, read-out: MIC | [1]; BBRI Pa-No. 51, Table 7, read-out: MIC | [1]; BBRI Pa-No. 52, Table 2, read-out: MIC | [1]; BBRI Pa-No. 53, Table 2, read-out: MIC | [1]; BBRI Pa-No. 53, Table 7, read-out: MIC | [1]; BBRI Pa-No. 54, Table 7, read-out: MIC | [1]; BBRI Pa-No. 55, Table 2, read-out: MIC | [1]; BBRI Pa-No. 55, Table 7, read-out: MIC | [1]; BBRI Pa-No. 56, Table 2, read-out: MIC | [1]; BBRI Pa-No. 56, Table 7, read-out: MIC | [1]; BBRI Pa-No. 57, Table 2, read-out: MIC | [1]; BBRI Pa-No. 57, Table 7, read-out: MIC | [1]; BBRI Pa-No. 59, Table 7, read-out: MIC | [1]; BBRI Pa-No. 61, Table 7, read-out: MIC | [1]; BBRI Pa-No. 64, Table 2, read-out: MIC | [1]; BBRI Pa-No. 64, Table 7, read-out: MIC | [1]; BBRI Pa-No. 65, Table 2, read-out: MIC | [1]; BBRI Pa-No. 65, Table 7, read-out: MIC | [1]; BBRI Pa-No. 66, Table 2, read-out: MIC | [1]; BBRI Pa-No. 66, Table 7, read-out: MIC | [1]; BBRI Pa-No. 67, Table 7, read-out: MIC | [1]; BBRI Pa-No. 70, K-Ps102 (CR-102), Table 2, read-out: MIC
6.3 µg/mL: [2]; K. pneumoniae, Table 1 | [3]; S. marcescens A20019, Table 6 | [3]; Serratia marcescens, S. marcescens, Table 1, read-out: MIC
12.5 µg/mL: [1]; GN315 | [4]; E. cloacae (1st line), Table 1 | [4]; E. cloacae (3rd line), Table 1 | [4]; E. cloacae A9656, Table 6 | [4]; E. cloacae A9659, Table 6
100 µg/mL: [1]; BBRI Pa-No. 33, Table 2, read-out: MIC | [1]; BBRI Pa-No. 35, Table 2, read-out: MIC | [1]; BBRI Pa-No. 38, Table 7, read-out: MIC | [1]; BBRI Pa-No. 69, Table 7, read-out: MIC
3.1 µg/mL: [1]; BBRI Pa-No. 31, Table 7, read-out: MIC | [2]; K. pneumoniae A9977, Table 6
> 100 µg/mL: [1]; BBRI Pa-No. 42, Table 2, read-out: MIC | [1]; BBRI Pa-No. 42, Table 7, read-out: MIC | [1]; BBRI Pa-No. 62, Table 2, read-out: MIC | [1]; BBRI Pa-No. 62, Table 7, read-out: MIC | [4]; E. cloacae (2nd line), Table 1 | [4]; E. cloacae A9657, Table 6
1.6 µg/mL: [1]; BBRI Pa-No. 36, Table 2, read-out: MIC | [5]; S. enteritidis A9531, Table 6 | [5]; Salmonella enterica, S. enteritidis, Table 1, read-out: MIC
0.8 µg/mL: [1]; BBRI Pa-No. 36, Table 7, read-out: MIC
50 µg/mL: [1]; BBRI Pa-No. 35, Table 7, read-out: MIC | [1]; BBRI Pa-No. 37, Table 2, read-out: MIC | [1]; BBRI Pa-No. 38, Table 2, read-out: MIC | [1]; BBRI Pa-No. 43, Table 2, read-out: MIC | [1]; BBRI Pa-No. 44 (unnamed strain), Table 7, read-out: MIC | [1]; BBRI Pa-No. 44, Table 2, read-out: MIC | [1]; BBRI Pa-No. 52, Table 7, read-out: MIC | [1]; BBRI Pa-No. 54, Table 2, read-out: MIC | [1]; BBRI Pa-No. 58, Table 2, read-out: MIC | [1]; BBRI Pa-No. 58, Table 7, read-out: MIC | [1]; BBRI Pa-No. 59, Table 2, read-out: MIC | [1]; BBRI Pa-No. 61, Table 2, read-out: MIC | [1]; BBRI Pa-No. 67, Table 2, read-out: MIC | [1]; BBRI Pa-No. 68, Table 2, read-out: MIC | [1]; BBRI Pa-No. 68, Table 7, read-out: MIC | [1]; BBRI Pa-No. 69, Table 2, read-out: MIC | [1]; BBRI Pa-No. 70, K-Ps102(CR-102), Table 7, read-out: MIC | [1]; GN315, BBRI Pa-No. 27, GN315, Table 2, read-out: MIC | [1]; GN4925, BBRI Pa-No. 44, GN4925, Table 7, read-out: MIC | [1]; GN4925, BBRI Pa-No. 45, GN4925, Table 2, read-out: MIC
